Reference: patent publication US20080221093A1, “Metalloprotease inhibitors containing a heterocyclic moiety” (priority 2007, published 2008)

Target: T1, catalytic domain of MMP-13 enzyme (Homo sapiens, UniProt P45452)
T1 construct: stock solution of catalytic domain of MMP-13 enzyme; purchased Invitek (Berlin) 30100812
Test: Assay for determining MMP-13 inhibition (fluorescent substrate)
Format: biochemical
Conditions: compounds named as lower than 100 nM
Protocol: Assay for Determining MMP-13 Inhibition
The typical assay for MMP-13 activity is carried out in assay buffer comprised of 50 mM Tris, pH 7.5, 150 mM NaCl, 5 mM CaCl2 and 0.05% Brij-35. Different concentrations of tested compounds are prepared in assay buffer in 50 μL aliquots. 10 μL of a 50 nM stock solution of catalytic domain of MMP-13 enzyme (produced by Alantos or commercially available from Invitek (Berlin), Cat.# 30100812) is added to the compound solution. The mixture of enzyme and compound in assay buffer is thoroughly mixed and incubated for 10 min at room temperature. Upon the completion of incubation, the assay is started by addition of 40 μL of a 12.5 μM stock solution of MMP-13 fluorescent substrate (Calbiochem, Cat. No. 444235). The time-dependent increase in fluorescence is measured at the 320 nm excitation and 390 nm emission by automatic plate multireader. The IC50 values are calculated from the initial reaction rates.

SMILES | IC50
O=C1COc2ccc(CNC(=O)C3NC(=O)c4ccccc4N3)cc2N1 (centres unmarked) [Example 1/4] | < 0.1 µM
O=C1COc2ccc(CNC(=O)c3cnc4ccccc4n3)cc2N1 [3/137] | < 0.1 µM
